# Structures can show the parent of a compound that is named as a salt.
# Columns and labels:
# [1] = Thermal stability of salt forms; format: physicochemical; conditions: salt form of imaging agent precursor-1
# From the text: (§1) Selected physical properties of the salts of Examples 5-6 and 8-12, determined using established characterization methods, are tabulated below (Table 1).
# [2] = Hygroscopicity of salt forms of imaging agent precursor-1; format: physicochemical; conditions: salt form of imaging agent precursor-1
# From the text: as §1
# [3] = Solubility of salt forms in acetonitrile; format: physicochemical; conditions: organic solvent or mixture, read-out: Solubility (Acetonitrile; mg/mL)
# From the text: as §1
# [4] = Stability of salt forms to GVS and 40° C./75% RH; format: physicochemical; conditions: salt form of imaging agent precursor-1
# From the text: as §1
# [5] = test system: norepinephrine transporter (NET), uptake 1; assay: Heart uptake in rabbits after uptake 1 blockade (desipramine) or 6-hydroxydopamine sympathetic denervation; format: in vivo; conditions: denervated rabbits and uptake 1 blocked rabbits and NHPs
# Experimental: (§2) Imaging agent-1 was designed as a substrate for the norepinephrine transporter (NET) to image the cardiac sympathetic nervous system. […] These values were similar to that of MIBG (2.12±0.26 μM and 4.76±0.78 pmol/min/million cells). In animals, tissue biodistribution of imaging agent-1 was assessed by tissue sampling at 15- and 60-minute following administration. Heart uptake was 2.36±0.16 and 2.17±0.12% injected dose per g tissue (% ID/g) in rats and 0.25±0.03 and 0.28±0.03% ID/g in rabbits. In rabbits, desipramine (1 mg/kg) inhibited heart uptake of imaging agent-1 by 68% and ^123I-MIBG uptake by 55% at 1 hour post dose.
# (§3) Desipramine, a selective uptake 1 inhibitor, was used to block cardiac uptake 1 in rats (10 mg/kg, ip), rabbits (1 mg/kg iv), and NHPs (0.5 mg/kg, iv). 6-hydroxydopamine, a neurotoxin, was injected to induce sympathetic denervation in rats (100 mg/kg ip for 7 days) and rabbits (25 mg/kg iv on day 1, 2, 7, and 8). Imaging agent-1 heart uptake in comparison with MIBG was assessed by tissue sampling at 60 minutes post imaging agent injection. Imaging was also performed with (2-tert-butyl-4-chloro-5-[4-(2-[^18F]fluoroethoxymethyl)-benzyloxy]-2H-pyridazin-3-1.
# [6] = test system: norepinephrine transporter (NET), uptake 1; assay: Heart uptake in rats after uptake 1 blockade (desipramine) or 6-hydroxydopamine sympathetic denervation; format: in vivo; conditions: sympathetic denervated rats
# Experimental: as §3
# [7] = Cardiac PET imaging in rabbit model of regional cardiac sympathetic denervation (RCSD) and re-innervation; format: in vivo, rabbits; conditions: all rabbits including those with RCSD regions
# Experimental: (§4) Rabbit models of RCSD were developed by applying phenol directly on the surface of the left ventricular wall during a sternotomy. Two and twelve weeks following the procedure, imaging agent-1 cardiac PET imaging (˜1.5 mCi, iv) were performed in these rabbits. The myocardial area with radioactivity ≥50% maximum was quantified as innervated region for comparison. To evaluate susceptibility of arrhythmia in rabbits, dofetilide (10 and 40 μg/kg iv, a delayed IKr inhibitor) induced changes were assessed by measuring ECG including heart rate (HR), QTc interval (corrected by Fridericia method), and frequency of arrhythmia.
# [8] = Cardiac PET imaging in rabbit models of regional and systemic cardiac sympathetic denervation (CSD); format: in vivo, rabbits; conditions: rabbits
# Experimental: Rabbit models of regional and systemic CSD were used. To develop regional CSD, a median sternotomy was performed and phenol (89% in liquid) was pained on the anterior and posterior walls of the left ventricle. To develop systemic denervation the neurotoxin, 6-hydroxydopamine (25 mg/kg on day 1, 2, 7 and 8), was administered intravenously. Two weeks following these procedures, rabbits were imaged with imaging agent-1 (˜1.5 mCi, i.v.) using a microPET camera for 30 minutes.
# NET [9] = target: T1, NET (Homo sapiens, UniProt P23975); assay: Effect of heart failure medications on NET mediated imaging agent-1 uptake in SK-N-SH cells; format: cell-based; set-up: endogenous in cells; host or cells: SK-N-SH; conditions: even at the highest concentrations tested (1000 μM)
# [10] = target: T2, norepinephrine transporter (NET) (Homo sapiens, UniProt P23975); assay: Uptake and uptake kinetics in SH-SY5Y human neuroblastoma cells; format: cell-based; conditions: SH-SY5Y cells
# T2 construct: endogenous in cells; host or cells: SH-SY5Y
# Experimental: as §2
# NET [11] = target: T1, NET; assay: NET mediated uptake kinetics in SK-N-SH cells; format: cell-based; set-up: endogenous in cells; host or cells: SK-N-SH
# Experimental: (§5) The affinity (Ki) was determined in a competition binding assay by incubating ^19F-imaging agent-1, a cold analog of imaging agent-1, or NE with ^3H-desmethylimipramine in cell membrane overexpressing human NET. The uptake selectivity was assessed by measuring imaging agent-1 or ^3H-NE cell uptake with and without pretreatment of desipramine, a selective NET inhibitor, in SK—N—SH (human neuroblastoma) and PC-12 (rat pheochromocytoma) cells. In SK—NSH cells, the uptake kinetics (Km and Vmax) were evaluated by measuring NET mediated uptake of imaging agent-1 or NE at various concentrations. Imaging agent-1 cardiac image quality was evaluated by PET imaging (˜1.5 mCi, i.v.) in rabbits in the presence and absence of desipramine (1 mg/kg).
# NET [12] = target: T1, NET; assay: Cell uptake selectivity with and without desipramine in SK-N-SH cells; format: cell-based; set-up: endogenous in cells; host or cells: SK-N-SH
# Experimental: as §5
# NET [13] = target: T3, NET (Rattus norvegicus, UniProt Q63380); assay: Cell uptake selectivity with and without desipramine in PC-12 cells; format: cell-based
# T3 construct: endogenous in cells; host or cells: PC-12
# Experimental: as §5
# [14] = target: T4, norepinephrine transporter (NET), uptake 1 (Oryctolagus cuniculus, UniProt G1TDF9); assay: Heart uptake in rabbits after uptake 1 blockade (desipramine) or 6-hydroxydopamine sympathetic denervation; format: in vivo; conditions: rabbits, desipramine 1 mg/kg, 1 hour post dose
# T4 construct: from tissue; host or cells: rabbit heart, in vivo
# Experimental: as §2, §3
# [15] = Heart uptake by tissue sampling in Dahl Salt Sensitive (DSS) rats, a model of heart failure; format: in vivo
# Experimental: The prognostic value of imaging agent-1 was evaluated in Dahl Salt Sensitive (DSS) rats, a rat model of heart failure (HF), and compared with ^123I-meta-iodobenzylguanidine (^123I-MIBG). DSS rats were fed either a low salt (0.1% as control) or high salt diet (8%) for 5 or 9 weeks. To determine the progression of HF in these rats, plasma norepinephrine levels, and heart and lung weights were measured. Compared to low salt diet groups, DSS rats fed a high salt diet for 5 weeks had marked increases in norepinephrine levels (258±28 vs. 1242±184 pg/mL) and heart to body weight ratio (3.3±0.1 vs. 4.5±0.3 mg/g). By 9 weeks, the norepinephrine levels (656±219 vs. 1508±165 pg/mL) and heart to body weight ratio (3.2±0.1 vs. 6.1±0.3 mg/g) had increased further and the lung to body weight ratio had become elevated (3.9±0.1 vs. 14.0±1.4 mg/g). […] Imaging agent-1 and MIBG heart uptake was examined in early and late stage HF rats by tissue sampling after intravenous administration. The uptake was measured using a gamma counter and expressed as differential absorption ratio (DAR). The imaging agent-1 heart uptake decreased following progression of HF from early to late stage HF (low salt group vs. high salt group: 6.9±0.6 vs. 5.1±0.6 and 8.1±0.2 vs. 3.1±0.2 DAR at 5 and 9 weeks respectively).
# [16] = Dofetilide induced ECG changes (arrhythmia susceptibility) in RCSD rabbits; format: in vivo; conditions: RCSD versus control
# Experimental: as §4
# T1 sequence (P23975 whole entry): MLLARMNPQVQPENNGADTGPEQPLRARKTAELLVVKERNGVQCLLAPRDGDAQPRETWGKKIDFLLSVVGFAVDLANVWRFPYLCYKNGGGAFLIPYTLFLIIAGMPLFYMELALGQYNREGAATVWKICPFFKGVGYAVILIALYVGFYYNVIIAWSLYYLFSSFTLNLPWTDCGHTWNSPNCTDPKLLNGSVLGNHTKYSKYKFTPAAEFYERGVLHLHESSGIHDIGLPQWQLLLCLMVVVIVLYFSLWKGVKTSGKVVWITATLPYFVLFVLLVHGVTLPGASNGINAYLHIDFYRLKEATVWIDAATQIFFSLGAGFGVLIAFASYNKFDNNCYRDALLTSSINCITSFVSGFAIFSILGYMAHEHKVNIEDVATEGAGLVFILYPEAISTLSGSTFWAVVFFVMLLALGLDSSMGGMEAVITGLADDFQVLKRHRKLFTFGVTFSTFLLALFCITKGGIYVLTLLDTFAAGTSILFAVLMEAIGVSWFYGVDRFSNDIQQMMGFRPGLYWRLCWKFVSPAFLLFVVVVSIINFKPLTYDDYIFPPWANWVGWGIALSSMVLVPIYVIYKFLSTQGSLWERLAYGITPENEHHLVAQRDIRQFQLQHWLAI
# T2 sequence (P23975 whole entry): as above
# T3 sequence (Q63380 1-617): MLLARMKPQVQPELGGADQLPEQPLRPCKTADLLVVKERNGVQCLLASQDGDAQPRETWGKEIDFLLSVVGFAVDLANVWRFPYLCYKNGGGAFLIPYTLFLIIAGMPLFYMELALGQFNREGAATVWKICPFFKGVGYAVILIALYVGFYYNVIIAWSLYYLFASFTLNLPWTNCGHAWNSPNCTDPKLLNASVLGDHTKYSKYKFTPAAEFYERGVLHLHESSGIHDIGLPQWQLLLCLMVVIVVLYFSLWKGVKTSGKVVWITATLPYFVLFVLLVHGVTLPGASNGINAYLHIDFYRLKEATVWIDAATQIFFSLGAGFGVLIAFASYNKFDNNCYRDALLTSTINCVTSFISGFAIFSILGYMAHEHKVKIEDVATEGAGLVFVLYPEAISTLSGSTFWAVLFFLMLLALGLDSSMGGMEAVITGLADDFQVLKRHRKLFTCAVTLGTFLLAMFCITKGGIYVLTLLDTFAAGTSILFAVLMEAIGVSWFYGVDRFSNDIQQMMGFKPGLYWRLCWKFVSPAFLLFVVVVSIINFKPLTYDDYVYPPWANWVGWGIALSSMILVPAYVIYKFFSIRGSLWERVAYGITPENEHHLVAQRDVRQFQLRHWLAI
# T4 sequence (G1TDF9 1-617): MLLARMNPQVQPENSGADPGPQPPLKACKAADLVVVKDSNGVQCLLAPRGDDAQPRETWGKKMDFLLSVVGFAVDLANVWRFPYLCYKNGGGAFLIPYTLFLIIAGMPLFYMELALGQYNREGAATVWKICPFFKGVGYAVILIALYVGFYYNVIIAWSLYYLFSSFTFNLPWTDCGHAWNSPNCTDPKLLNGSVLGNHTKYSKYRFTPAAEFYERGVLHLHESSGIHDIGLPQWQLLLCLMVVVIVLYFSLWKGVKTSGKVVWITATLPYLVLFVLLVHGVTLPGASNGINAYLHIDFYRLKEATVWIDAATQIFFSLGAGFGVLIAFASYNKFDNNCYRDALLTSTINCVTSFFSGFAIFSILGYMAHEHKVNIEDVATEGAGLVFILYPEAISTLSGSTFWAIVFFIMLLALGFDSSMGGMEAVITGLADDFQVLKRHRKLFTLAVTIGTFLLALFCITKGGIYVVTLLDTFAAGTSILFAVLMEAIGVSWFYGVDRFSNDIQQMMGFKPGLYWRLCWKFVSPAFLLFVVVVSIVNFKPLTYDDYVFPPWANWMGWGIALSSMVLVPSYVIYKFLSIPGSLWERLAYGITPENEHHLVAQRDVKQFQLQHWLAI
smiles,measurement,setting,value
"N=C(N)NCc1ccc(OCCCOS(=O)(=O)c2ccc(Br)cc2)c(Br)c1 [Phosphate, 3-(2-Bromo-4-(guanidinomethyl)phenoxy)propyl 4-bromobenzenesulfonate, phosphoric acid salt]","Thermal stability, First event at",[1],155 °C
same,Hygroscopicity,[2],Slight
same,solubility,[3],0.3 mg/mL
same,Stability to GVS and 40° C./75% RH,[4],Stable
"CC(C)(C)n1ncc(OCc2ccc(COCC[18F])cc2)c(Cl)c1=O [(2-tert-butyl-4-chloro-5-[4-(2-[^18F]fluoroethoxymethyl)-benzyloxy]-2H-pyridazin-3-1, reference compound]","Cardiac imaging, myocardial activity",[5],marked activity reduction
same,"Cardiac imaging, myocardial activity versus control",[6],comparable myocardial activity
same,"Perfusion imaging, myocardial distribution",[7],homogeneous myocardial distribution
same,"Cardiac perfusion imaging, control versus denervated rabbits",[8],no differences were observed
"CC(=O)O.N=C(N)NCc1ccc(OCCCOS(=O)(=O)c2ccc(Br)cc2)c(Br)c1 [Acetate, 3-(2-Bromo-4-(guanidinomethyl)phenoxy)propyl 4-bromobenzenesulfonate, acetic acid salt]",solubility,[3],0.4 mg/mL
"CCCCc1nc(Cl)c(CO)n1Cc1ccc(-c2ccccc2-c2nn[nH]n2)cc1 [Losartan, losartan]",Effect on imaging agent-1 uptake,NET [9],no effect
C[C@H](CS)C(=O)N1CCC[C@H]1C(=O)O [captopril],Effect on imaging agent-1 uptake,NET [9],no effect
"N=C(N)NCc1cccc(I)c1 [MIBG, ^123I-meta-iodobenzylguanidine]",Km,[10],2.12 ± 0.26 µM
"N=C(N)NCc1ccc(OCCCOS(=O)(=O)c2ccc(Br)cc2)c(Br)c1.O=C(O)c1ccccc1 [Benzoate, 3-(2-Bromo-4-(guanidinomethyl)phenoxy)propyl 4-bromobenzenesulfonate, benzoic acid salt]",solubility,[3],1.5 mg/mL
"NC[C@H](O)c1ccc(O)c(O)c1 [NE, norepinephrine, reference compound]",Vmax (NET mediated uptake),NET [11],6.2±0.7 pMol/million cells/min
same,Inhibition of cell uptake by blockade of NET (desipramine),NET [12],97±1%
same,Inhibition of cell uptake by blockade of NET (desipramine),NET [13],93±1%
"Cl.N=C(N)NCc1ccc(OCCCOS(=O)(=O)c2ccc(Br)cc2)c(Br)c1 [Hydrochloride, 3-(2-Bromo-4-(guanidinomethyl)phenoxy)propyl 4-bromobenzenesulfonate, hydrochloric acid salt]","Thermal stability, First event at",[1],117 °C
same,Hygroscopicity,[2],Indicates hydrate
same,Stability to GVS and 40° C./75% RH,[4],Stable
"N=C(N)NCc1ccc(OCCCOS(=O)(=O)c2ccc(Br)cc2)c(Br)c1 [Sulfate, 3-(2-Bromo-4-(guanidinomethyl)phenoxy)propyl 4-bromobenzenesulfonate, sulfuric acid salt]","Thermal stability, First event at",[1],103 °C
same,Hygroscopicity,[2],Hygroscopic
"N=C(N)NCc1ccc(OCCCOS(=O)(=O)c2ccc(Br)cc2)c(Br)c1.O=C(O)C(F)(F)F [Trifluoroacetate, 3-(2-Bromo-4-(guanidinomethyl)phenoxy)propyl 4-bromobenzenesulfonate, trifluoroacetate salt]","Thermal stability, First event at",[1],142 °C
same,Hygroscopicity,[2],Slight
same,solubility,[3],4.68 mg/mL
same,Stability to GVS and 40° C./75% RH,[4],Stable
"N=C(N)NCc1cccc([123I])c1 [MIBG, ^123I-meta-iodobenzylguanidine]",Inhibition of heart uptake by desipramine (uptake 1 blockade),[14],55%
same,"Heart uptake, differential absorption ratio (DAR)","[15]; high salt group, 5 weeks (early stage HF)",3.8±0.5 DAR
same,"Heart uptake, differential absorption ratio (DAR)","[15]; high salt group, 9 weeks (late stage HF)",2.3±0.3 DAR
same,"Heart uptake, differential absorption ratio (DAR)","[15]; low salt group, 5 weeks",7.3±0.1 DAR
same,"Heart uptake, differential absorption ratio (DAR)","[15]; low salt group, 9 weeks",7.9±0.5 DAR
same,Vmax (uptake kinetics),[10],4.76±0.78 pmol/min/million cells
"CS(=O)(=O)O.N=C(N)NCc1ccc(OCCCOS(=O)(=O)c2ccc(Br)cc2)c(Br)c1 [Mesylate, 3-(2-Bromo-4-(guanidinomethyl)phenoxy)propyl 4-bromobenzenesulfonate, methanesulfonic acid salt]","Thermal stability, First event at",[1],152 °C
same,Hygroscopicity,[2],Slight
same,solubility,[3],1.28 mg/mL
same,Stability to GVS and 40° C./75% RH,[4],Stable
"CN(CCOc1ccc(NS(C)(=O)=O)cc1)CCc1ccc(NS(C)(=O)=O)cc1 [Dofetilide, dofetilide]","Induced QTc prolongation, frequency of premature ventricular contraction, and torsades de pointes",[16]; 10 and 40 μg/kg iv,more prominent in the RCSD group than in control
same,Induced changes in HR,[16],comparable in the two groups

# — patent US11174223B2, “Compositions, methods, and systems for the synthesis and use of imaging agents” (Lantheus Medical Imaging, Inc., priority 2010, dated 2021)
